This is an account of results in PubChem BioAssay (NCI).

Among the test systems are HCT-116 colon; HL-60(TB) leukemia; LOX IMVI melanoma; MCF7 breast; MDA-MB-435; NCI-H23 lung; SF-268 CNS; SF-539 CNS; U251 CNS; OVCAR-5 ovarian.
Common to all, as to assay: NCI anticancer screen, dose series, 48 h

The structures appear in SMILES notation.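 Assay format: 96-well plates, 48-hour exposure. GI50 marks 50% less growth. TGI: total growth inhibition.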

As for `COc1ccc(-c2cc3c4c(nc5ccccc5c4c2)CC(c2cc(OC)c(OC)c(OC)c2)O3)cc1` (configuration not stated), the GI50 is 1.31 µM in the experiment on HCT-116 colon; above 100 µM in the experiment on HL-60(TB) leukemia; 1.92 µM in the experiment with LOX IMVI melanoma; 2.36 µM with MCF7 breast; 2.99 µM in the experiment on MDA-MB-435; 3.75 µM with NCI-H23 lung. The GI50 is 1.72 µM in the experiment on SF-268 CNS, 1.44 µM in the experiment on SF-539 CNS and 1.76 µM in the experiment on U251 CNS. Also, the TGI was 4.15 µM in the experiment on HCT-116 colon; above 100 µM with HL-60(TB) leukemia; 6.81 µM in the experiment on LOX IMVI melanoma; 79.5 µM with MCF7 breast; 13.7 µM in the experiment on MDA-MB-435; 18.5 µM with NCI-H23 lung. In addition, the TGI stood at 5.48 µM with SF-268 CNS, 2.95 µM in the experiment with SF-539 CNS and 4.83 µM with U251 CNS.

With `CC1OCC2OC(C)OC(C3C4=C(CC(C)(C)CC4=O)OC4=C3C(=O)CC(C)(C)C4)C2O1` (configuration not stated), the TGI in the experiment on HCT-116 colon, in the experiment with HL-60(TB) leukemia, in the experiment on LOX IMVI melanoma, in the experiment on MCF7 breast, in the experiment on MDA-MB-435 and with NCI-H23 lung was above 100 µM in each case. The TGI in the experiment with OVCAR-5 ovarian, in the experiment with SF-268 CNS and in the experiment on SF-539 CNS was above 100 µM in each case.

Regarding `COCCNCC(O)Cn1c2ccc(Cl)cc2c2cc(Cl)ccc21` (configuration not stated), the GI50 in the experiment on HL-60(TB) leukemia is 2.05 µM; in the experiment with MCF7 breast, 1.81 µM; in the experiment with MDA-MB-435, 1.7 µM; in the experiment on NCI-H23 lung it was 2.1 µM; in the experiment with OVCAR-5 ovarian, 2.15 µM; in the experiment with SF-268 CNS, 1.79 µM. Further, the results for the GI50 with SF-539 CNS and in the experiment with U251 CNS were 1.8 µM and 1.94 µM, respectively. Besides, the TGI stood at 4.51 µM in the experiment on HL-60(TB) leukemia; 3.49 µM in the experiment on MCF7 breast; 3.19 µM in the experiment on MDA-MB-435; 4.7 µM with NCI-H23 lung; 5.23 µM in the experiment with OVCAR-5 ovarian; 3.48 µM in the experiment with SF-268 CNS. Moreover, the results for the TGI with SF-539 CNS and in the experiment on U251 CNS were 3.43 µM and 3.93 µM, respectively.

Turning to `O=C1Nc2ccc(Cl)cc2/C1=C\c1c(-c2ccc(F)cc2)nc2ccccn12`, the GI50 in the experiment on HL-60(TB) leukemia was 1.88 µM; with LOX IMVI melanoma it was 2.06 µM; in the experiment on MCF7 breast it was 2.71 µM; with MDA-MB-435, 1.99 µM; with NCI-H23 lung it was 2.37 µM; in the experiment with OVCAR-5 ovarian, 2.21 µM. The GI50 in the experiment on SF-268 CNS is 2.34 µM; with SF-539 CNS it was 2.09 µM; in the experiment on U251 CNS, 2.05 µM. Further, the TGI came out at 4.48 µM in the experiment with HL-60(TB) leukemia; 4.89 µM in the experiment with LOX IMVI melanoma; 10.7 µM with MCF7 breast; 5.03 µM in the experiment on MDA-MB-435; 7.57 µM with NCI-H23 lung; 6.72 µM with OVCAR-5 ovarian. In addition, the TGI in the experiment on SF-268 CNS was 6.04 µM; with SF-539 CNS, 5 µM; in the experiment on U251 CNS, 5.13 µM.

As for `Cc1c(Cl)ccc2c1NC(=O)C2(O)CC(=O)c1ccc(Cl)cc1Cl` (configuration not stated), the TGI in the experiment with HCT-116 colon, in the experiment with LOX IMVI melanoma, with MCF7 breast, with MDA-MB-435, with NCI-H23 lung and in the experiment with OVCAR-5 ovarian was above 50 µM each time. The TGI in the experiment on SF-268 CNS, with SF-539 CNS and in the experiment on U251 CNS was above 50 µM in each case.

As for `c1ccc2c(c1)O[As](O[As]1Oc3ccccc3O1)O2`, the GI50 with HCT-116 colon is 3.17 µM; in the experiment with HL-60(TB) leukemia it was 1.49 µM; in the experiment on LOX IMVI melanoma, 2.3 µM; with MCF7 breast, 1.86 µM; in the experiment with MDA-MB-435 it was 2.8 µM; in the experiment with OVCAR-5 ovarian, 5.01 µM. Moreover, the GI50 was 2.47 µM with SF-268 CNS, 1.84 µM in the experiment on SF-539 CNS and 1.35 µM in the experiment on U251 CNS. Also, the TGI in the experiment on HCT-116 colon was 14.1 µM; with HL-60(TB) leukemia it was 3.92 µM; with LOX IMVI melanoma it was 10.3 µM; with MCF7 breast it was 13.2 µM; in the experiment on MDA-MB-435, 13.9 µM; in the experiment with OVCAR-5 ovarian it was 22.2 µM. The figures for the TGI in the experiment with SF-268 CNS, in the experiment with SF-539 CNS and with U251 CNS were 12.1 µM, 6.27 µM and 4.43 µM, respectively.

`O=C1OCC(c2ccc(O)c(O)c2)=C1c1cc(O)c(O)c(O)c1`: the GI50 is 18.1 µM in the experiment with HCT-116 colon; 19.1 µM in the experiment with LOX IMVI melanoma; 36.9 µM in the experiment with MCF7 breast; 17 µM in the experiment on MDA-MB-435; 19.2 µM in the experiment on NCI-H23 lung; 17.7 µM in the experiment with OVCAR-5 ovarian. Further, the GI50 with SF-268 CNS is 63.7 µM; with SF-539 CNS, 22.8 µM; in the experiment with U251 CNS it was 17.9 µM. Moreover, the TGI was 35.5 µM in the experiment with HCT-116 colon; 36.8 µM in the experiment with LOX IMVI melanoma; above 100 µM in the experiment with MCF7 breast; 32.5 µM with MDA-MB-435; 38.2 µM in the experiment on NCI-H23 lung; 34.6 µM with OVCAR-5 ovarian. Moreover, the values for the TGI in the experiment with SF-268 CNS, with SF-539 CNS and in the experiment with U251 CNS were above 100 µM, 47.9 µM and 32.7 µM, respectively.

On to `COc1ccc2c(c1)Oc1nc(N)c(C#N)c(N)c1C2Sc1ccc(SC)cc1` (configuration not stated), for which the GI50 in the experiment on HCT-116 colon was 1.76 µM; with HL-60(TB) leukemia, 1.99 µM; with LOX IMVI melanoma, 1.68 µM; in the experiment with MCF7 breast it was 1.83 µM; in the experiment on MDA-MB-435, 1.74 µM; with OVCAR-5 ovarian it was 1.8 µM. Further, the values for the GI50 with SF-268 CNS, in the experiment on SF-539 CNS and in the experiment with U251 CNS were 1.7 µM, 1.72 µM and 1.73 µM, respectively. Also, the TGI was 3.24 µM with HCT-116 colon; 5.49 µM with HL-60(TB) leukemia; 3.21 µM with LOX IMVI melanoma; 4.5 µM with MCF7 breast; 3.23 µM in the experiment on MDA-MB-435; 3.55 µM with OVCAR-5 ovarian. The figures for the TGI in the experiment on SF-268 CNS, in the experiment with SF-539 CNS and in the experiment with U251 CNS were 3.29 µM, 3.11 µM and 3.19 µM, respectively.

On to `Cc1ccc(S(=O)(=O)N(C)C)cc1[N+](=O)[O-]`, for which the GI50 in the experiment with HCT-116 colon, in the experiment with LOX IMVI melanoma, with MCF7 breast, with MDA-MB-435, with NCI-H23 lung and in the experiment with OVCAR-5 ovarian was above 100 µM each time. For the same compound, the GI50 with SF-268 CNS, in the experiment on SF-539 CNS and in the experiment with U251 CNS was above 100 µM each time. The TGI in the experiment with HCT-116 colon, with LOX IMVI melanoma, with MCF7 breast, with MDA-MB-435, with NCI-H23 lung and with OVCAR-5 ovarian was above 100 µM throughout. Also, the TGI in the experiment on SF-268 CNS, with SF-539 CNS and with U251 CNS was above 100 µM each time.
